Measured values as given in the NIST ThermoML archive (doi:10.1007/s10765-010-0766-0).
“And” between values parts separate entries of the source, which are not always exact repeats. Equal entries are not always repeated.

Experiment: molar heat capacity at constant volume
Details: Liquid, Vacuum adiabatic calorimetry

FC(F)C(F)(F)OCC(F)(F)F [2,2,2-trifluoroethyl 1,1,2,2-tetrafluoroethyl ether]
Details | molar heat capacity at constant volume
279.15 K, 5663 kPa | 189.85 J/K/mol
280.15 K, 6663 kPa | 187.85 J/K/mol
280.15 K, 6673 kPa | 191.45 J/K/mol
281.15 K, 7673 kPa | 194.25 J/K/mol
281.15 K, 7685 kPa | 189.25 J/K/mol
282.15 K, 8685 kPa | 190.65 J/K/mol
282.15 K, 8696 kPa | 193.65 J/K/mol
283.15 K, 9695 kPa | 191.85 J/K/mol
283.15 K, 9705 kPa | 192.45 J/K/mol
284.15 K, 10704 kPa | 193.45 J/K/mol
284.15 K, 10712 kPa | 191.85 J/K/mol
285.15 K, 11710 kPa | 191.65 J/K/mol
285.15 K, 11717 kPa | 193.65 J/K/mol
286.15 K, 12714 kPa | 193.85 J/K/mol
286.15 K, 12720 kPa | 191.65 J/K/mol
287.15 K, 13718 kPa | 193.05 J/K/mol
287.15 K, 13722 kPa | 194.65 J/K/mol
288.15 K, 14719 kPa | 192.25 J/K/mol
288.15 K, 14722 kPa | 193.05 J/K/mol
289.15 K, 15719 kPa | 193.65 J/K/mol
289.15 K, 15720 kPa | 193.25 J/K/mol
290.15 K, 16716 kPa | 193.45 J/K/mol
290.15 K, 16717 kPa | 195.85 J/K/mol
291.15 K, 17711 kPa | 193.65 J/K/mol
291.15 K, 17712 kPa | 194.45 J/K/mol
292.15 K, 18703 kPa | 193.05 J/K/mol
292.15 K, 18704 kPa | 193.05 J/K/mol
293.15 K, 19694 kPa | 193.45 J/K/mol and 195.45 J/K/mol
294.15 K, 20683 kPa | 194.85 J/K/mol and 193.25 J/K/mol
295.15 K, 21669 kPa | 192.45 J/K/mol and 193.65 J/K/mol
296.15 K, 22653 kPa | 195.05 J/K/mol
296.15 K, 22654 kPa | 195.85 J/K/mol
297.15 K, 23636 kPa | 193.85 J/K/mol and 194.45 J/K/mol
298.15 K, 24616 kPa | 193.85 J/K/mol
298.15 K, 24617 kPa | 193.85 J/K/mol
299.15 K, 25595 kPa | 195.45 J/K/mol
299.15 K, 25596 kPa | 196.45 J/K/mol
300.15 K, 26572 kPa | 194.05 J/K/mol
300.15 K, 26573 kPa | 193.85 J/K/mol
301.15 K, 6294 kPa | 197.05 J/K/mol
301.15 K, 27548 kPa | 196.25 J/K/mol and 195.85 J/K/mol
302.15 K, 7147 kPa | 196.45 J/K/mol
302.15 K, 28521 kPa | 195.05 J/K/mol
302.15 K, 28522 kPa | 193.65 J/K/mol
303.15 K, 8010 kPa | 194.05 J/K/mol
303.15 K, 8015 kPa | 197.65 J/K/mol
303.15 K, 29493 kPa | 196.65 J/K/mol and 196.85 J/K/mol
304.15 K, 8873 kPa | 195.25 J/K/mol
304.15 K, 8874 kPa | 194.45 J/K/mol
305.15 K, 9734 kPa | 197.65 J/K/mol and 197.85 J/K/mol
306.15 K, 10592 kPa | 195.45 J/K/mol
306.15 K, 10594 kPa | 196.05 J/K/mol
307.15 K, 11449 kPa | 197.25 J/K/mol
307.15 K, 11452 kPa | 197.05 J/K/mol
308.15 K, 12303 kPa | 195.25 J/K/mol
308.15 K, 12308 kPa | 196.25 J/K/mol
309.15 K, 13157 kPa | 197.45 J/K/mol
309.15 K, 13163 kPa | 197.45 J/K/mol
310.15 K, 14009 kPa | 195.65 J/K/mol
310.15 K, 14016 kPa | 196.45 J/K/mol
311.15 K, 14859 kPa | 196.45 J/K/mol
311.15 K, 14867 kPa | 197.05 J/K/mol
312.15 K, 15708 kPa | 198.05 J/K/mol
312.15 K, 15718 kPa | 197.25 J/K/mol
313.15 K, 16557 kPa | 196.85 J/K/mol
313.15 K, 16566 kPa | 197.05 J/K/mol
314.15 K, 17405 kPa | 198.05 J/K/mol
314.15 K, 17414 kPa | 196.85 J/K/mol
315.15 K, 18252 kPa | 199.05 J/K/mol
315.15 K, 18260 kPa | 196.45 J/K/mol
316.15 K, 19097 kPa | 197.45 J/K/mol
316.15 K, 19105 kPa | 197.85 J/K/mol
317.15 K, 19942 kPa | 200.86 J/K/mol
317.15 K, 19949 kPa | 198.45 J/K/mol
318.15 K, 20785 kPa | 198.25 J/K/mol
318.15 K, 20791 kPa | 198.65 J/K/mol
319.15 K, 21626 kPa | 197.85 J/K/mol
319.15 K, 21632 kPa | 197.65 J/K/mol
320.15 K, 22467 kPa | 200.45 J/K/mol
320.15 K, 22471 kPa | 199.25 J/K/mol
321.15 K, 23306 kPa | 199.25 J/K/mol
321.15 K, 23311 kPa | 198.45 J/K/mol
322.15 K, 24144 kPa | 199.05 J/K/mol
322.15 K, 24148 kPa | 198.05 J/K/mol
323.15 K, 24980 kPa | 199.65 J/K/mol
323.15 K, 24983 kPa | 199.05 J/K/mol
324.15 K, 25816 kPa | 200.66 J/K/mol
324.15 K, 25819 kPa | 201.06 J/K/mol
325.15 K, 26650 kPa | 199.05 J/K/mol
325.15 K, 26653 kPa | 197.05 J/K/mol
326.15 K, 27482 kPa | 200.86 J/K/mol
326.15 K, 27484 kPa | 199.85 J/K/mol
327.15 K, 28313 kPa | 199.65 J/K/mol
327.15 K, 28315 kPa | 198.65 J/K/mol
328.15 K, 29144 kPa | 200.66 J/K/mol
328.15 K, 29145 kPa | 201.86 J/K/mol
329.15 K, 7678 kPa | 198.25 J/K/mol
329.15 K, 7689 kPa | 201.66 J/K/mol
329.15 K, 29973 kPa | 201.66 J/K/mol
329.15 K, 29975 kPa | 200.25 J/K/mol
330.15 K, 8385 kPa | 206.66 J/K/mol
330.15 K, 8394 kPa | 203.66 J/K/mol
331.15 K, 9091 kPa | 203.86 J/K/mol
331.15 K, 9099 kPa | 203.26 J/K/mol
332.15 K, 9796 kPa | 205.26 J/K/mol
332.15 K, 9803 kPa | 203.46 J/K/mol
333.15 K, 10500 kPa | 204.86 J/K/mol
333.15 K, 10506 kPa | 204.26 J/K/mol
334.15 K, 11204 kPa | 205.86 J/K/mol
334.15 K, 11209 kPa | 204.66 J/K/mol
335.15 K, 11908 kPa | 206.26 J/K/mol
335.15 K, 11912 kPa | 205.06 J/K/mol
336.15 K, 12610 kPa | 205.26 J/K/mol
336.15 K, 12614 kPa | 204.26 J/K/mol
337.15 K, 13313 kPa | 208.46 J/K/mol
337.15 K, 13315 kPa | 206.66 J/K/mol
338.15 K, 14014 kPa | 204.26 J/K/mol
338.15 K, 14016 kPa | 204.66 J/K/mol
339.15 K, 14714 kPa | 208.46 J/K/mol
339.15 K, 14716 kPa | 206.06 J/K/mol
340.15 K, 15413 kPa | 207.06 J/K/mol
340.15 K, 15416 kPa | 206.86 J/K/mol
341.15 K, 16111 kPa | 207.06 J/K/mol
341.15 K, 16114 kPa | 208.06 J/K/mol
